#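 Exposure lasted 48 hours, with cells grown in 96-well plates and compounds tested at five concentrations. The concentration for 50% growth inhibition is given as GI50. TGI: concentration producing complete growth inhibition.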
# Legend:
# Test in all cases: inhibition of tumour cell growth, NCI panel, 48 h
# HT29 colon = system: HT29 colon
# KM12 colon = system: KM12 colon
# MDA-MB-231 breast = system: MDA-MB-231 breast
# OVCAR-3 ovarian = system: OVCAR-3 ovarian
# PC-3 prostate = system: PC-3 prostate
# SK-OV-3 ovarian = system: SK-OV-3 ovarian
# UACC-257 melanoma = system: UACC-257 melanoma
# UACC-62 melanoma = system: UACC-62 melanoma
# LOX IMVI melanoma = system: LOX IMVI melanoma
# SNB-19 CNS = system: SNB-19 CNS
Compound,GI50 (HT29 colon),TGI (HT29 colon),GI50 (KM12 colon),TGI (KM12 colon),GI50 (MDA-MB-231 breast),TGI (MDA-MB-231 breast),GI50 (OVCAR-3 ovarian),TGI (OVCAR-3 ovarian),GI50 (PC-3 prostate),TGI (PC-3 prostate),GI50 (SK-OV-3 ovarian),TGI (SK-OV-3 ovarian),GI50 (UACC-257 melanoma),TGI (UACC-257 melanoma),GI50 (UACC-62 melanoma),TGI (UACC-62 melanoma),TGI (LOX IMVI melanoma),TGI (SNB-19 CNS),GI50 (LOX IMVI melanoma),GI50 (SNB-19 CNS)
O=C(Nc1ccc(N2CCNCC2)cn1)c1[nH]ncc1Nc1ncnc2sccc12,1.91 µM,3.97 µM,3.31 µM,11.5 µM,1.68 µM,3.36 µM,2.02 µM,4.38 µM,1.59 µM,3.65 µM,10.6 µM,25.7 µM,16.4 µM,36.7 µM,2.6 µM,7.33 µM,–,–,–,–
Cn1cc2ccccc2c1-c1nc(F)nc(Nc2ccc(N)cc2)n1,–,57.3 µM,–,41.9 µM,–,–,–,48.3 µM,–,–,–,33.8 µM,–,37.6 µM,–,–,27 µM,95.5 µM,–,–
CCC(C)(C)NS(=O)(=O)c1ccccc1,–,> 100 µM,–,> 100 µM,–,–,–,> 100 µM,–,–,–,> 100 µM,–,> 100 µM,–,> 100 µM,–,–,–,–
C[C@@]1(O)CCC[C@H]1n1c(=O)c(C(F)F)cc2cnc(NC3CCN(S(C)(=O)=O)CC3)nc21,1.27 µM,> 100 µM,1.8 µM,> 100 µM,1.14 µM,7.04 µM,–,–,2.1 µM,> 100 µM,–,–,2.31 µM,22.8 µM,1.04 µM,3.31 µM,> 100 µM,16.8 µM,1.28 µM,1.34 µM
CCOc1ccc(N=Cc2ccc3ccccc3n2)cc1,–,> 100 µM,–,> 100 µM,–,–,–,> 100 µM,–,–,–,> 100 µM,–,> 100 µM,–,> 100 µM,> 100 µM,> 100 µM,–,–
CC(C)C1=CC23CCC4C(C)(C(=O)O)CCCC4(C)C2CC1C1C(=O)N(c2cccc(N4C(=O)C5C6CC7C8(C)CCCC(C)(C(=O)O)C8CCC7(C=C6C(C)C)C5C4=O)c2)C(=O)C13 (stereo not drawn),–,10.8 µM,–,9.7 µM,–,39.2 µM,–,25.7 µM,–,17.9 µM,–,–,–,–,–,80.1 µM,–,–,–,–
O=c1c(-c2nc3ccccc3[nH]2)cc2ccccc2n1Cc1cn(Cc2ccccc2Cl)nn1,2.2 µM,4.7 µM,2.5 µM,7.72 µM,1.71 µM,3.79 µM,2.01 µM,4.17 µM,2.6 µM,7.5 µM,–,–,3.18 µM,12.6 µM,1.73 µM,3.57 µM,–,28.3 µM,–,4.32 µM
CCN(CC)/[N+]([O-])=N/OCC(C)O (stereo not drawn),–,> 100 µM,–,> 100 µM,–,–,–,> 100 µM,–,–,–,> 100 µM,–,> 100 µM,–,> 100 µM,> 100 µM,> 100 µM,–,–
COC(=O)c1ccc(/C=C/S(=O)(=O)c2ccccc2)cc1,–,> 100 µM,–,> 100 µM,–,–,–,> 100 µM,–,–,–,> 100 µM,–,> 100 µM,–,> 100 µM,> 100 µM,> 100 µM,–,–
COc1cc(OC)cc(C(=O)Cc2c(C(=O)c3ccccc3)c3ccccc3n2C(=O)c2ccccc2)c1,–,> 100 µM,–,> 100 µM,–,–,–,> 100 µM,–,–,–,99.8 µM,–,–,–,> 100 µM,> 100 µM,69 µM,–,–
Cc1ccc2c(c1)-c1oc(=O)c(-c3cc4ccccc4oc3=O)cc1C(O)O2 (stereo not drawn),40.8 µM,> 100 µM,19.6 µM,48.3 µM,15.2 µM,43.7 µM,22.2 µM,42.1 µM,45.2 µM,> 100 µM,–,–,34 µM,92.6 µM,17.4 µM,35.6 µM,31.4 µM,71 µM,17.6 µM,22.6 µM
CCCCCN(CCCCC)C(=O)[C@H](CCC(=O)OCc1ccccc1)NC(=O)c1cc2ccccc2[nH]1,–,> 100 µM,–,> 100 µM,–,–,–,> 100 µM,–,–,–,> 100 µM,–,> 100 µM,–,> 100 µM,> 100 µM,> 100 µM,–,–
CCOc1ncnc2ccc(Cl)c(I)c12,–,> 100 µM,–,> 100 µM,–,–,–,> 100 µM,–,–,–,> 100 µM,–,> 100 µM,–,> 100 µM,> 100 µM,> 100 µM,–,–
Nc1nc(CC2(O)CCCCC2)cc(-c2ccccc2)n1,–,> 49.2 µM,–,> 57 µM,–,–,–,> 63.6 µM,–,–,–,> 100 µM,–,> 78.1 µM,–,> 100 µM,> 55.5 µM,> 100 µM,–,–
N/C(=N\N=C\c1ccc(O)c(O)c1)NO,–,> 100 µM,–,> 100 µM,–,–,–,> 100 µM,–,–,–,> 100 µM,–,> 100 µM,–,> 100 µM,> 100 µM,> 100 µM,–,–
CCOC(=O)NC(=O)c1cn(C2OC(COC(=O)CCCCCCCCC(=O)OCC3OC(n4cc(C(=O)NC(=O)OCC)c(=O)[nH]c4=O)C4OC(C)(C)OC34)C3OC(C)(C)OC32)c(=O)[nH]c1=O (stereo not drawn),–,> 100 µM,–,> 100 µM,–,–,–,> 100 µM,–,–,–,–,–,> 100 µM,–,> 100 µM,> 100 µM,> 100 µM,–,–
CC(C)=CCC/C(C)=C/CC/C(C)=C/C1CCC(=O)C1(C)C (stereo not drawn),–,32.4 µM,–,32.7 µM,–,–,–,32.5 µM,–,–,–,81 µM,–,42.7 µM,–,50.6 µM,28.9 µM,65.2 µM,–,–
CC1(C)Oc2ccccc2[N+]([O-])=C1c1ccccc1,–,> 100 µM,–,–,–,–,–,> 100 µM,–,–,–,> 100 µM,–,> 100 µM,–,> 100 µM,–,> 100 µM,–,–
[N-]=[N+]=NC1C2CC3CC(C2)CC1C3 (stereo not drawn),–,> 100 µM,–,> 100 µM,–,–,–,> 100 µM,–,–,–,> 100 µM,–,> 100 µM,–,> 100 µM,> 100 µM,> 100 µM,–,–
COc1c(Cl)[c]([Hg][O]C(C)=O)c(NCC(C)=O)c(OC)[c]1[Hg][O]C(C)=O,19.5 µM,48.2 µM,31.7 µM,> 100 µM,–,–,10.2 µM,21.8 µM,–,–,24.5 µM,45.6 µM,15.4 µM,29.9 µM,–,–,> 100 µM,11.2 µM,33.4 µM,3.53 µM
Cc1nc(-n2nc(-c3ccccc3)cc2-c2ccccc2)sc1C(=O)/C=C/c1ccc(Cl)cc1,–,29.6 µM,–,25.6 µM,–,–,–,35.6 µM,–,–,–,> 100 µM,–,49.1 µM,–,28.7 µM,27.9 µM,–,–,–

# Source: PubChem BioAssay (NCI)
